Measured values reported in PMC6445162, “Effects of NS2B-NS3 protease and furin inhibition on West Nile and Dengue virus replication” (Journal of Enzyme Inhibition and Medicinal Chemistry, 2017).
pKi: −log10 of the molar value. Where two headings read alike, the source gives them in different places. Peptide text beside a SMILES is read from it.

Tests used:
[1] = biological target: DENV serotype 2 NS2B-NS3 protease construct (Dengue virus serotype 2); assay: enzyme inhibition (percent inhibition of the cleavage of a fluorogenic substrate); DENV-2 NS2B-NS3pro ~39 nM in well; 100 µM inhibitor, 125 µM substrate Phac-Lys-Arg-Arg-AMC (KM = 60 µM); 100 mM Tris pH 8.5, 20% glycerol, 0.01% Triton X-100; room temperature
WNV NS2B-NS3 protease [2] = biological target: T1, WNV NS2B-NS3 protease (West Nile virus, UniProt P06935); parameters: method as in PMID 23307694; conditions: reference compounds available from previous studies; cited from earlier work
T1 construct: WNV NS2B 40-amino acid cofactor together with the NS3 protease domain

WNV-protease = biological target: T2, WNV-protease (West Nile virus, UniProt P06935); assay: Incubation with WNV protease and HPLC analysis of cleavage; format: biochemical; conditions: identical conditions, 4 h; data not shown
T2 construct: WNV NS2B 40-amino acid cofactor together with the NS3 protease domain
Procedure: The preferred P3-P1 Lys-Lys-Arg segment[29] was used for the preparation of a series of peptidic inhibitors. The peptides were modified in their prime site segment and at the P4 position (Table 2). […] In contrast, under identical conditions approximately 33% of the chromogenic substrate Phac-Lys-Lys-Arg-pNA was cleaved (data not shown). Thus, these compounds seem to be poor substrates of the WNV NS2B-NS3 protease and therefore, act as competitive inhibitors. The best Ki values <0.2 µM were obtained for peptides with the general structure phenylacetyl-Lys-Lys-Arg-NH2 containing an N-terminal guanidinomethyl substitution at the P4-residue.

DENV (strain 16681) = assay: DENV plaque assay (virus yield from infected Huh-7 cells, titration on VeroE6); format: cell-based, Dengue virus serotype 2; conditions: preliminary studies
Procedure: Inhibition of DENV propagation was determined by plaque assay as described recently[20]^,[28] with slight modifications. Huh-7 cells were seeded into 96-well plates and incubated overnight. The next day, cells were infected with DENV (strain 16681) at a multiplicity of infection (MOI) of 1 PFU/cell. Given concentrations of the compounds, dissolved in culture medium, were added to the cells together with the virus. After 2 h incubation at 37 °C, inocula were removed and cells were covered with fresh medium containing given concentrations of the inhibitors. Production of virus progeny was determined 48 h postinfection by titration of cell supernatants using a plaque assay on VeroE6 cells. Ribavirin was included as a reference compound.

[3] = biological target: T3, DENV serotype 2 NS2B-NS3 protease (Dengue virus type 2, UniProt P14340); assay: Enzyme kinetic inhibition of DENV-2 NS2B-NS3 protease construct; format: biochemical, Dengue virus serotype 2; conditions: 100 μM inhibitor in the presence of 125 μM substrate; read-out: % Inhib. (DENV)
T3 construct: The proteolytic activity of WNV and DENV is located in the N-terminal part of its NS3 protein; made in house
Procedure: (§1) All measurements were performed at room temperature in black flat-bottom 96-well plates (Nunc, Langenselbold, Germany) using microplate readers (Tecan Safire^2, λex = 380 nm and λem = 460 nm, Tecan Group Ltd., Männedorf, Switzerland or Fluoroskan Ascent type 374, λex = 355 nm and λem = 460 nm; Thermo Fisher Scientific, Vantaa, Finland). The assays with the flavivirus protease constructs were performed with 125 μl buffer (100 mM Tris pH 8.5 containing 20% glycerol, 0.01% Triton X-100, and the inhibitor), 50 μl substrate solution, and were started by addition of 25 μl enzyme solution (total assay volume 200 μl).
(§2) The DENV serotype 2 NS2B-NS3 protease construct was prepared from an identical clone as described by D’Arcy et al.[26] The purification of the protease was carried out in a buffer with high ion-strength and low pH value, in the absence of glycerol (20 mM Bis-Tris, 500 mM NaCl, pH 6.3), in order to prevent autolysis of the enzyme. Purification was performed by using a 5 ml HisTrapTM FF column (GE Healthcare) and subsequently, a HiLoad 16/60 SuperdexTM 75 column (GE Healthcare). The assays with the DENV-2 NS2B-NS3^pr° (∼39 nM in well) were performed with the substrate Phac-Lys-Arg-Arg-AMC ×3 TFA (125 µM, 62.5 µM and 31.25 µM in assay, KM = 60 µM). All Ki values were obtained from Dixon plots[27] and are the average of at least two measurements. Due to the weak potency of most compounds against the DENV-2 NS2B-NS3 protease construct, only the percentage of inhibition at a constant inhibitor concentration of 100 µM in the presence of 125 µM substrate was determined.

WNV NS2B-NS3 protease [4] = biological target: T1, WNV NS2B-NS3 protease; assay: Enzyme kinetic inhibition of WNV NS2B-NS3 protease construct (Dixon plot); format: biochemical; conditions: covalently linked WNV NS2B-NS3 construct; substrate Phac-Leu-Lys-Lys-Arg-AMC; Dixon plots, average of at least two measurements
Procedure: as §1
For measurements with the covalently linked WNV NS2B-NS3 protease construct (∼4 nM in assay) the substrate Phac-Leu-Lys-Lys-Arg-AMC ×3 TFA (50 µM, 100 µM and 200 µM in assay, KM = 47.5 µM) was used, as described previously.
as §2

Compound | inhibition at 100 µM [3] [%] | Ki (WNV NS2B-NS3 protease [4]) [µM] | also measured
4-(guanidinomethyl)-phenylacetyl-Lys-Lys-Arg-NH2 (peptide) | – | – | % inhibition at 100 μM inhibitor, 125 μM substrate [1]: 65%
N=C(N)NCCCCNC(=O)C(CCCCN)NC(=O)C(CCCCN)NC(=O)Cc1ccc(Cl)c(Cl)c1 (stereo not drawn) [3,4-di-Cl-Phac-Lys-Lys-agmatine] | – | – | pKi (WNV NS2B-NS3 protease [2]): 6.40
N=C(N)NCCC[C@H](NC(=O)[C@H](CCCCN)NC(=O)[C@H](CCCCN)NC(=O)Cc1ccccc1)C(=O)Nc1ccc([N+](=O)[O-])cc1 [Phac-Lys-Lys-Arg-pNA] (HELM PEPTIDE1{[O=C(Cc1ccccc1)[*:2]].K.K.R.[O=[N+]([O-])c1ccc(N[*:1])cc1]}$$$$V2.0) | – | – | amount cleaved by the WNV-protease (WNV-protease): approximately 33%
N=C(N)N[C@H]1CC[C@H](CNC(=O)[C@H](CCCCN)NC(=O)[C@H](CCCCN)NC(=O)Cc2ccc(Cl)c(Cl)c2)CC1 [inhibitor 1] | – | – | antiviral effect in DENV-infected cells (DENV (strain 16681)): no antiviral effect
N=C(N)NCCC[C@H](NC(=O)[C@H](CCCCN)NC(=O)[C@H](CCCCN)NC(=O)Cc1ccc(-c2ccccc2)cc1)C(N)=O [inhibitor 34] | 27.1 | 0.53 | –
N=C(N)NCCC[C@H](NC(=O)[C@H](CCCCN)NC(=O)[C@H](CCCCN)NC(=O)Cc1ccc(CN)cc1)C(N)=O [inhibitor 35] | 31.7 | 0.38 | –
N=C(N)NCCC[C@H](NC(=O)[C@H](CCCCN)NC(=O)[C@H](CCCCN)NC(=O)Cc1cccc(CN)c1)C(N)=O [inhibitor 36] | 12.4 | 0.36 | –
N=C(N)NCCC[C@H](NC(=O)[C@H](CCCCN)NC(=O)[C@H](CCCCN)NC(=O)Cc1cccc(CNC(=N)N)c1)C(N)=O [inhibitor 37] | 32.3 | 0.18 | –
N=C(N)NCCC[C@H](NC(=O)[C@H](CCCCN)NC(=O)[C@H](CCCCN)NC(=O)Cc1ccc(CNC(=N)N)cc1)C(N)=O [inhibitor 38, 4-(guanidinomethyl)-phenylacetyl-Lys-Lys-Arg-NH2] | 65 | 0.11 | –
N=C(N)NCCC[C@H](NC(=O)[C@H](CCCCN)NC(=O)[C@H](CCCCN)NC(=O)CC1CCCCC1)C(N)=O [inhibitor 41] | 36.7 | 4.8 | –
N=C(N)NCCC[C@H](NC(=O)[C@H](CCCCN)NC(=O)[C@H](CCCCN)NC(=O)CC12CC3CC(CC(C3)C1)C2)C(N)=O [inhibitor 43] | 24.2 | 13.8 | –
N=C(N)NCCC[C@H](NC(=O)[C@H](CCCCN)NC(=O)[C@H](CCCCN)NC(=O)[C@@H](N)C12CC3CC(CC(C3)C1)C2)C(N)=O [inhibitor 44] (HELM PEPTIDE1{[N[C@H](C(=O)[*:2])C12CC3CC(CC(C3)C1)C2].K.K.R.[am]}$$$$V2.0) | 14.6 | 70 | –
